Results taken from PMC5346991 (ACS Medicinal Chemistry Letters, 2017).
Values belong to the compound of their own block, whether it stands above or below them.

What was measured:
[1] = Mouse pharmacokinetics, plasma and brain exposure; assay type: in vivo, female BALB/c mice; conditions: 10 mg/kg i.p., for 4 h
HepG2 cells = experiment: HepG2 toxicity assay; assay type: cell-based; conditions: host cell toxicity
[2] = Human plasma protein binding; assay type: in vitro ADME; conditions: Table 1

plasma exposure relative to the EC50 [1]: > 120 fold
Compound: O=S(=O)(c1ccc(-c2ccc3nccc(Nc4ccncn4)c3c2)cc1)N1CCOCC1 [Compound 13j, 6-(4-(morpholinosulfonyl)phenyl)-N-(pyrimidin-4-yl)quinolin-4-amine]

Compound: COc1ccc(Nc2ccnc3ccc(-c4ccc(S(=O)(=O)N5CCOCC5)cc4)cc23)cc1C [Compound 13k]
HepG2 TC50 (HepG2 cells): 9.0 µM

protein binding (% free) [2]: <0.03 % free
Compound: O=S(=O)(c1ccc(-c2ccc3nccc(Nc4ccc(OCc5cccc(F)c5)cc4)c3c2)cc1)N1CCOCC1 [Compound 3]
